In patent US20230136562A1, “SPIROUREA DERIVATIVES” (Idorsia Pharmaceuticals Ltd, priority 2020, published 2023):
Read-outs that look alike come from different tables or passages of the source.

Legend:
[1] = system: primary neuronal cultures from embryonic rat brains; assay: Rat oscillation assay (FLIPR, neuronal calcium oscillations); type: cell-based; conditions: Rattus norvegicus
Method in brief: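 Cortical neurons from E18 Wistar rat embryos, cultured 8–10 days at high density, loaded with 1 μM Fluo-8 AM; calcium oscillations recorded by FLIPR once per second in Mg-free HBSS with 2 mM CaCl2, 20 mM HEPES, pH 7.4. Two acquisitions ("Acute", 500 sec, compound added at 250 sec; "20 min"), ± Kv7 blocker XE-991.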

DBA/2J mice = assay: Audiogenic seizure-sensitive mouse model of generalized convulsive seizures (AGS); type: in vivo; conditions: challenge 1 h, 90% MC 0.5% + 10% PEG400, read-out: Seizure stage [% vs. vehicle]
Protocol: Formulation and Administration.
Compounds were formulated in a 10% polyethylene glycol 400 (PEG 400)/90% aqueous solution of 0.5% methylcellulose (MC 0.5%). Firstly drugs are dissolved in PEG 400 and then suspended in MC 0.5% for oral gavage at X mg/5 mL/kg (X see table).
Audiogenic Seizure-Sensitive Mouse Model of Generalized Convulsive Seizures
1. Procedure: Following two days of acclimatisation, auditory seizures are induced in male juvenile DBA/2J mice (22-24 days old). Each mouse is placed individually in the exposure chamber, an hemispheric acrylic glass dome (diameter: 50 cm) within a sound-attenuated box. The sound-attenuated box is equipped with two house lights and a camera system (Fire-I from Unibrain) in order to observe and record the behavioral seizure response. After 60 seconds of habituation, the stimulus, a mixed frequency tone of 15-20 kHz at 110 dB (SASLab Lite, Avisoft Bioacoustics), is played from a speaker that is placed on the top center of the dome. […] Seizures are classified as following: stage 0, normal behavior; stage 1, wild running; stage 2, generalized clonus; stage 3, tonic extension of the hind limbs.
2. Compounds testing: Acute compound effects on audiogenic generalized convulsive seizures are evaluated in independent groups of 8-10 mice randomly assigned. Following oral administration of compound or vehicle, the maximum seizure stage during sound exposure is assessed. Compounds are given 1 hour before exposure to the stimulus. Each mouse is exposed to the auditory stimulus only once and euthanized afterwards by CO2 inhalation.

[2] = 20 min, AUC of fluorescence measured 20 min after compound addition, read-out: FLIPR: IC50 [nM] 20 min
[3] = Acute phase, ratio of AUC fluorescence before and after compound addition, read-out: FLIPR: IC50 [nM] acute

| SMILES | IC50 [1, 2] | IC50 [1, 3] | change in vivo at 30 mg/kg (DBA/2J mice; 30 mg/kg po) | change in vivo at 10 mg/kg (DBA/2J mice; 10 mg/kg po) | change in vivo at 5 mg/kg (DBA/2J mice; 5 mg/kg po) |
| --- | --- | --- | --- | --- | --- |
| O=C(NCc1cccc(C(F)(F)F)c1)NC1CC2(CC2)C1 [Example 2, 1-Spiro[2.3]hex-5-yl-3-(3-trifluoromethyl-benzyl)-urea] | 86 nM | 63 nM | -95% | – | – |
| O=C(NCc1cc(OCC(F)(F)F)ncn1)NC1CC2(CCC2)C1 [Example 59, 1-Spiro[3.3]hept-2-yl-3-[6-(2,2,2-trifluoro-ethoxy)-pyrimidin-4-ylmethyl]-urea] | 61 nM | 45 nM | – | -70% | – |
| O=C(NC1CC2(CC2)C1)N[C@@H](CO)c1cccc(C(F)(F)F)c1 (single isomer, unassigned) [Example 186] | 40 nM | 20 nM | – | – | -67% |
